Data taken from patent US7507395B2, “Methods of using fluorescent pH indicators for intracellular assays” (MDS Analytical Technologies (US) Inc., priority 2001, dated 2009).

Key:
[1] = background statement; cited from earlier work
[2] = pH buffer series, final concentration 1.0 μM, Gemini XS fluorescence plate reader
Text: The excitation and emission spectra of the aqueous solutions are obtained with a Gemini XS fluorescence plate reader (Molecular Devices Corporation; Sunnyvale, Calif.).

M1CHO cells [3] = assay: Pirenzapine inhibition of carbachol-mediated stimulation of M1CHO cells (intracellular pH); assay type: cell-based; settings: pirenzapine 0.1, 0.3, 1.0 μM, carbachol 1 μM
Method: M1CHO Cells, 50,000, in 40 μL are seeded and incubated at 37° C., 5% CO2 overnight in a 96-well microplate. To each well is added 10 μL of the Loading Buffer (as described in Examples 19 and 20) including a fluorescein diacetate compound of the invention and a nonfluorescent quenching dye. After 45 min at room temperature 5 μL of 220 mM ammonium chloride, in combination with pirenzapine to a final concentration of 0.0 μM, 1.0 μM, 0.3 μM, and 0.1 μM. […] A drop in fluorescence signal is observed at time=10 to 20 seconds, corresponding to a drop in signal due to the increased acidification of the cells. The low pH stimulates the Na^+/H^+ exchange pump.

M1CHO cells [4] = assay: Effect of increasing concentrations of carbachol on M1CHO cells (intracellular pH); assay type: cell-based; settings: carbachol 6.7 μM or 0 μM, after ammonium chloride
Method: M1CHO cells, 50,000, in 40 μL were seeded and incubated at 37° C., 5% CO2 overnight in a 96-well microplate. To each well is added 10 μL of the Loading Buffer (as described in Examples 19 and 20) including a fluorescein diacetate compound of the invention and a nonfluorescent quenching dye. After 45 min at room temperature, 5 μL of 220 mM ammonium chloride is added. […] A drop is fluorescence signal is observed at time=10 to 20 seconds due to the increased acidification of the cells. The low pH stimulates the Na^+/H^+ exchange pump.
For Compounds 19 and 20, emission is monitored at 550 nm and excitation is monitored at 505 and 470 nm.

MCF7/ADR cells = assay: Drug Resistance Assay: insulin on MCF7/ADR cells (intracellular pH); assay type: cell-based; settings: 0.003-150 nM insulin, after NH4Cl acid load, FIG. 6
Method: MCF7/ADR cells are MCF7 mammary gland adenocarcinoma selected for adriamycin resistance. These cells are propagated and maintained in DMEM medium containing 5% FCS, 1× Pen/Strep, 2 mM L-glutamine, and non-essential amino acids. The assay is performed according to the following procedure.
The cells are then incubated in a 37° C. CO2 incubator overnight.
A 25 mM stock solution of a Masking Compound is prepared by dissolving an appropriate amount of the desired Masking Compound in 10 mL water.
The cell plate is removed from the incubator, and all wells are washed once with 1× Assay Buffer, leaving 40 μL of buffer in each well. The cell plate is then incubated at 37° C. for at least 4 hours.
A stock solution of insulin is prepared by dissolving 1 mg of insulin in 1 mL of 1 M HCl to a concentration of 174 μM. A 5 μL aliquot of the insulin stock solution is diluted with 4,574 μL H+H/2 mM probenecid/0.1% BSA solution (190 nM stock, 150 nM final concentration). Three-fold dilutions are performed 11 times to obtain final concentrations of 0.003, 0.008, 0.02, 0.07, 0.2, 0.6, 1.9, 5.6, 17, 50, and 150 nM, respectively.

CHO/CCR5/Galphaqi5 cells = assay: Effect of increasing concentrations of RANTES on CHO/CCR5/Galphaqi5 cells (intracellular pH); assay type: cell-based; settings: RANTES 2-500 nM, after ammonium chloride
Method: CHO/CCR5/Galphaqi5 cells, 80,000, in 40 μL are seeded and incubated at 37° C., 5% CO2 overnight in a 96-well microplate. To each well is added 10 μL of Loading Buffer (as described in Examples 19 and 20) including a fluorescein diacetate compound of the invention and a nonfluorescent quenching dye. After 45 min at room temperature 5 μL of 220 mM ammonium chloride is added. Following an additional 15 min incubation at room temperature, 200 μL of buffer containing RANTES to a final concentration of 500, 167, 56, 19, 6, 2, or 0 nM is added using the fluidics module on a fluorescence microplate reader (10 seconds after the start of the experiment) and fluorescence readings are recorded. A drop in fluorescence signal is observed at time=10 to 20 seconds, corresponding to an increased acidification of the cells. The low pH stimulates the Na+/H+ exchange pump.

2′,7′-bis-(2-carboxyethyl)-5-(and-6)-carboxyfluorescein [BCECF]
pKa [1]: 7.0

2′,7′-diethyl-5-(or 6-)carboxyfluorescein [Compound 4]
calculated pKa (acid dissociation constant) [2]: 6.96

CN1CCN(CC(=O)N2c3ccccc3C(=O)Nc3cccnc32)CC1 [Pirenzapine]
effect on carbachol-mediated stimulation (M1CHO cells [3]): inhibits the carbachol-mediated stimulation

C[N+](C)(C)CCOC(N)=O [carbachol]
activity of the Na+/H+ exchange pump / alkalinization of the cells (M1CHO cells [4]): increases the activity of the pump, resulting in a greater alkalinization of the cells in a dose:dependent manner

insulin
activity of the Na+/H+ exchange pump / alkalinization of the cells (MCF7/ADR cells): increases the activity of the pump, resulting in a greater alkalinization of the cells in a dose-dependent manner

B1: RANTES (protein, UniProt P13501 24-91, looked up)
C-C motif chemokine 5: SPYSSDTTPCCFAYIARPLPRAHIKEYFYTSGKCSNPAVVFVTRKNRQVCANPEKKWVREYINSLEMS
notes: RANTES, added to CHO/CCR5/Galphaqi5 cells at increasing concentrations
activity of the Na+/H+ exchange pump / alkalinization of the cells (CHO/CCR5/Galphaqi5 cells): increases the activity of the pump, resulting in a greater alkalinization of the cells in a dose:dependent manner
